Experimental data taken from ChEMBL document CHEMBL4043292, “Discovery and Optimization of Phosphopantetheine Adenylyltransferase Inhibitors with Gram-Negative Antibacterial Activity” (J Med Chem, 2018).
In brackets after ≈: the same amount, converted by molar mass.

How the values were obtained:
[1] = biological target: T1, Bifunctional coenzyme A synthase (Homo sapiens) (UniProt Q13057)
T1 sequence (whole entry): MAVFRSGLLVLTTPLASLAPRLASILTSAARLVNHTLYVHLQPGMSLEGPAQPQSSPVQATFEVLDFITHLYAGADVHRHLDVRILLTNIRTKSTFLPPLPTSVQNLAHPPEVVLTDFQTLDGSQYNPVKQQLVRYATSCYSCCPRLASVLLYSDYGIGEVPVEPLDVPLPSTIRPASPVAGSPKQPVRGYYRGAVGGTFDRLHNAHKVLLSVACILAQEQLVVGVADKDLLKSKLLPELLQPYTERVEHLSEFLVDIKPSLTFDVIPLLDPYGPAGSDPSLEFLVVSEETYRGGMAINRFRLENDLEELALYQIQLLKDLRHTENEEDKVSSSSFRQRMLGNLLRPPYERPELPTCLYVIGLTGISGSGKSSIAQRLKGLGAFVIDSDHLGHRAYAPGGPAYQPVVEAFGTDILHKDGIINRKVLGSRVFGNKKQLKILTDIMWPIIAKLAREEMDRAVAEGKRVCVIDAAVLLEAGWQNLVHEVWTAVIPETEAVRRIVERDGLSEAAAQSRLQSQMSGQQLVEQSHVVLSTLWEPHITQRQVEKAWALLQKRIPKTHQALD
Description: Inhibition of human coaSY expressed in tolC deficient Escherichia coli JWK0002 assessed as bacterial growth inhibition after 20 hrs by broth microdilution method

physchem [2] = conditions: buffer, pH 7.4
Description: Lipophilicity, log D of the compound at pH 7.4

physchem [3] = conditions: PBS
Description: Solubility of the compound in PBS

in vitro [4] = conditions: human, not told
Description: Efflux ratio in human microsomes

in vitro [5] = conditions: human, Caco-2
in vitro [6] = conditions: human, Caco-2; remark: listed apart in the source
Description: Efflux ratio of apparent permeability across basolateral to apical over apical to basolateral side in human Caco2 cells

Escherichia coli [7] = assay: microbe, parasite or virus in culture; conditions: JW5503-1, 20 h
Description: Antibacterial activity against tolC deficient Escherichia coli JW5503-1 after 20 hrs by broth microdilution method

Escherichia coli [8] = assay: microbe, parasite or virus in culture; conditions: BW25113, 20 h
Description: Antibacterial activity against Escherichia coli BW25113 after 20 hrs by broth microdilution method

Escherichia coli [9] = assay: microbe, parasite or virus in culture; conditions: JW0451-2, 20 h
Description: Antibacterial activity against acrB deficient Escherichia coli JW0451-2 after 20 hrs by broth microdilution method

Escherichia coli [10] = assay: microbe, parasite or virus in culture; conditions: RFM795, 20 h
Description: Antibacterial activity Escherichia coli RFM795 harboring frame deletion of 23 amino acids in lptD gene after 20 hrs by broth microdilution method

Pseudomonas aeruginosa [11] = assay: microbe, parasite or virus in culture; conditions: PAO1, 20 h
Description: Antibacterial activity against Pseudomonas aeruginosa PAO1 after 20 hrs by broth microdilution method

Pseudomonas aeruginosa [12] = assay: microbe, parasite or virus in culture; conditions: K1119, 20 h
Description: Antibacterial activity against mexAB deficient Pseudomonas aeruginosa K1119 after 20 hrs by broth microdilution method

[13] = Inhibition of PPAT in tolC deficient Escherichia coli JW5503-1 assessed as reduction in level of CoA-SH metabolite by mass spectrometric method
[14] = Inhibition of PPAT in Escherichia coli BW25113 assessed as reduction in level of CoA-SH metabolite by mass spectrometric method
Escherichia coli [15] = assay: Ratio of IC50 for PPAT in Escherichia coli BW25113 assessed as reduction in level of CoA-SH metabolite to IC50 for PPAT in tolC deficient Escherichia coli JW5503-1 assessed as reduction in level of CoA-SH metabolite
Pseudomonas aeruginosa [16] = assay: microbe, parasite or virus in culture; conditions: ATCC 35151, 20 h
Description: Antibacterial activity against Pseudomonas aeruginosa ATCC 35151 after 20 hrs by broth microdilution method

SMILES	MIC [1] [µg/mL]	logD (physchem [2])	solubility (physchem [3]) [µg/mL]	efflux ratio (in vitro [4])	Papp A→B (in vitro [5]) [×10⁻⁶ cm/s]	efflux ratio (in vitro [6])	MIC (Escherichia coli [7]) [µg/mL]	MIC (Escherichia coli [8]) [µg/mL]	MIC (Escherichia coli [9]) [µg/mL]	MIC (Escherichia coli [10]) [µg/mL]	MIC (Pseudomonas aeruginosa [11]) [µg/mL]	MIC (Pseudomonas aeruginosa [12]) [µg/mL]	IC50 [13] [µM]	IC50 [14] [µM]	Ratio IC50 (Escherichia coli [15])	MIC (Pseudomonas aeruginosa [16]) [µg/mL]
COC(=O)N1CCC(Cc2cccc([C@@H](CC#N)Nc3nc4nc(C)ccc4[nH]3)c2)CC1	128 (≈ 296 µM)	2.8	158 (≈ 365 µM)	0.77	2.3	18	≤ 0.125	128 (≈ 296 µM)	16 (≈ 37 µM)	2 (≈ 4.62 µM)	> 128	32 (≈ 74 µM)	–	–	–	–
COC(=O)N1CCC(Oc2cccc([C@@H](CC#N)Nc3nc4nc(C)ccc4[nH]3)c2)CC1	> 128	3	264 (≈ 608 µM)	0.44	1	48	0.25 (≈ 0.575 µM)	> 128	32 (≈ 73.6 µM)	8 (≈ 18.4 µM)	> 128	128 (≈ 295 µM)	0.024	11.9	500	128 (≈ 295 µM)
